Legend:
[1] = system: boiled liver microsomes; assay: Stability in boiled liver microsomes (control incubation); format: in vitro ADME
Protocol: (§1) Methods: Previously frozen human liver microsomes (mixed gender pool; Xenotech H0630) were thawed in a 37° C. water bath and put on ice immediately after thawing. […] The incubation mixture (500 μL) was prepared in individual silanized tube (CTS-13100) for each time point and for each test article. Incubation was terminated by adding 500 μL cold water:acetonitrile 1:1 (v/v) spiked with 400 nM paclitaxel (internal standard) to the tube. […] The slope of the linear regression from log percentage remaining versus incubation time relationships (−k) was used in the calculation of intrinsic clearance: Intrinsic clearance (CLint)=k*(μL incubation/mg of microsomal protein).

[2] = system: cytochrome P450 CYP3A4 and CYP3A5; settings: by cytochrome P450 CYP3A4 and CYP3A5 isoenzymes; cited from earlier work
[3] = In vitro metabolic stability in human liver microsomes; format: in vitro ADME; settings: both sexes, pH 7.4; human liver microsomes 0.5 mg/mL, 1 μM test article, up to 30 minutes, 37° C.; read-out: intrinsic clearance rate
Protocol: as §1

[4] = system: NCI-H460 cell line; assay: In vitro cytotoxicity, CellTiter-Glo cell viability, NCI-H460; format: cell-based; settings: Homo sapiens, 72 hours of exposure
Protocol: (§2) Experimental Procedure: NCI-H460, A549, and MDA-MB-231 cell lines were obtained from ATCC and cultured in RPMI-1640 medium supplemented with 2 mM L-glutamine dipeptide and 10% fetal bovine serum (FBS). For assays, cells were seeded in 96-well plates at 5,000 cells per well in RMPI-1640 medium supplemented with 2 mM L-glutamine dipeptide and 10% FBS. All cells were seeded in a total volume of 50 μL, and placed in a 37° C. humidified 5% CO2 cell culture incubator overnight. […] Cell viability was assessed using the CellTiter-Glo Luminescent Cell Viability Assay (Promega) according to the manufacturer's directions. Briefly, plates were removed from the incubator and placed on the bench at room temperature for 30 minutes. Plates were not stacked. Following the 30 minute incubation period at room temperature, 100 μL of CellTiter-Glo reagent were added to each well on the plate and mixed for two minutes, followed by a further ten minutes incubation at room temperature. Luminescence was then recorded using a PerkinElmer Microbeta scintillation and luminescence counter (TriLux). At the same time as drug exposure, a CellTiter-Glo assay was carried out on one plate of each cell line to obtain 0 hr counts for the assay. Following a 72 hour exposure to drugs, a CellTiter-Glo assay was performed on all remaining plates.

[5] = system: A549 cell line; assay: In vitro cytotoxicity, CellTiter-Glo cell viability, A549; format: cell-based; settings: Homo sapiens, 72 hours of exposure
Protocol: as §2

[6] = system: MDA-MB-231 cell line; assay: In vitro cytotoxicity, CellTiter-Glo cell viability, MDA-MB-231; format: cell-based; settings: Homo sapiens, 72 hours of exposure
Protocol: as §2

[7] = Maximum tolerated dose (MTD) study in athymic mice; settings: for MTD at 30 day: female, athymic nu/nu, mouse, in vivo, iv, athymic nu/nu mice
Protocol: Mice were observed daily for clinical signs and body weights were recorded on days 1-5, 7, 9, 11, 13, and then biweekly until the end of study. All procedures were conducted in compliance with IACUC requirements. Compound dosing was terminated for any group in which mean weight loss exceeded 20% or >10% of animals died. Moribund animals were euthanized and all animals were euthanized at end of study (day 30).

SMILES: CO[C@H]1C(=O)[C@]2(C)[C@@H](OC)C[C@H]3OC[C@@]3(OC(C)=O)[C@H]2[C@H](OC(=O)c2ccccc2)[C@]2(O)C[C@H](OC(=O)[C@H](O)[C@@H](NC(=O)OC(C)(C)C)c3ccccc3)C(C)=C1C2(C)C [Cabazitaxel]
- docetaxel formation after incubation with boiled liver microsomes [1]: not observed
- stability during incubation with boiled liver microsomes ([1]; 1 μM, up to 30 minutes): fairly stable
- extensively metabolized in the liver [2]: > 95%
- microsomal CLint at 1 μM [3]: 410 µL/min/mg

SMILES: CC(=O)O[C@@]12CO[C@@H]1C[C@H](O)[C@@]1(C)C(=O)[C@H](O)C3=C(C)[C@@H](OC(=O)[C@H](O)[C@@H](NC(=O)OC(C)(C)C)c4ccccc4)C[C@@](O)([C@@H](OC(=O)c4ccccc4)[C@H]21)C3(C)C [Docetaxel, reference compound]
- IC50 [4]: 3.52 nM
- IC50 [5]: 1.82 nM
- IC50 [6]: 35.2 nM

SMILES: [2H]C([2H])([2H])C(OC(=O)N[C@@H](c1ccccc1)[C@@H](O)C(=O)O[C@H]1C[C@@]2(O)[C@@H](OC(=O)c3ccccc3)C3C(C)(C(=O)[C@H](O)C(=C1C)C2(C)C)[C@@H](O)CC1OC[C@]13OC(C)=O)(C([2H])([2H])[2H])C([2H])([2H])[2H] (stereo partly drawn) [d9-Docetaxel]
- IC50 [4]: 2.68 nM
- IC50 [5]: 1.6 nM
- Treatment-Related Deaths ([7]; Group 1, 10 mg/kg iv, qwk x 3, N 5): 0
- BW Nadir ([7]; Group 2, 20 mg/kg iv, qwk x 3): −5.6%
- Treatment-Related Deaths ([7]; Group 2, 20 mg/kg iv, qwk x 3, N 5): 0
- BW Nadir ([7]; Group 3, 40 mg/kg iv, qwk x 3): −21.9%
- Treatment-Related Deaths ([7]; Group 3, 40 mg/kg iv, qwk x 3, N 5): 0
- BW Nadir ([7]; Group 4, 7.5 mg/kg iv, qwk x 3): −10.6%
- Treatment-Related Deaths ([7]; Group 4, 7.5 mg/kg iv, qwk x 3 in Table 2, N 5): 0
- BW Nadir ([7]; Group 5, 15 mg/kg iv, qwk x 3): −12.3%
- Treatment-Related Deaths ([7]; Group 5, 15 mg/kg iv, qwk x 3 in Table 2, N 5): 0
- BW Nadir ([7]; Group 6, 30 mg/kg iv, qwk x 3): −29.6%
- Mean Day of Death ([7]; Group 6, 30 mg/kg iv, qwk x 3): 11.5
- Treatment-Related Deaths ([7]; Group 6, 30 mg/kg iv, qwk x 3 in Table 2, N 5): 2
- MTD at 30 day ([7]; q3d×3, iv): ~15 mg/kg
- MTD at 30 day ([7]; qwk×3, iv): ~30 mg/kg
- IC50 [6]: 25.2 nM
